Experimental data from patent US20170258787A1, “PROPHYLACTIC AND/OR THERAPEUTIC AGENT FOR BEHAVIORAL AND PSYCHOLOGICAL SYMPTOMS ASSOCIATED WITH NEURODEGENERATIVE DISEASE OR IMPULSIVE SYMPTOMS ASSOCIATED WITH MENTAL DISEASE CONTAINING BREXPIPRAZOLE OR SALT THEREOF” (OTSUKA PHARMACEUTICAL CO., LTD., priority 2012, published 2017).

Tests used:
Wistar rat [1] = conditions: reported in Alcohol & Alcoholism 2001; 36:2-10; cited from earlier work
[2] = system: patients with highly severe Alzheimer's disease; conditions: 12 weeks, Alzheimer's disease patients in nursing home, cited from earlier work
schizophrenia patients = conditions: Psychiatric Services 2001, 52:1510-14; cited from earlier work
[3] = system: mouse having a Disc1 L100P point mutation; conditions: Neuron 54(3): 387-402, 2007; cited from earlier work
APPSL-Tg mouse = assay: Measurement of mouse circadian rhythm locomotor activity (spontaneous locomotor activity in dark period); type: in vivo; conditions: for spontaneous locomotor activity, dark period III (3:00-7:00), Night 1 / spontaneous locomotor activity, dark period III (3:00-7:00), Night 2 / spontaneous locomotor activity, dark period III (3:00-7:00), Night 3: APPSL-Tg mice
Source text: 1) Measurement of Mouse Circadian Rhythm Locomotor Activity
(§1) Animal: APPSL-Tg mouse (male) having Swedish and London APP mutations, and non-Tg mouse (male) free of a genetic mutation as a control were generated (Neuroscience Letters 2010; 469:273-277), bred in a breeding room, and used after they became 6-month-old. During the breeding, isolated housing was applied.
(§2) Measurement method: SUPERMEX manufactured by Muromachi Kikai Co., Ltd. was used for the measurement of circadian rhythm locomotor activity. The mouse was placed in an individual cage, and the spontaneous locomotor activity of the mouse was measured for 3 days (total 62.5 hr) under free-feeding, drinking water conditions. In this apparatus, a passive infrared sensor detects infrared rays emitted from the mouse, and the number of transpositions is counted. The measured values are totaled every 30 min, and automatically totaled using a specialized software CompACT AMS. The test was performed in a soundproof chamber, so that the spontaneous locomotor activity of the mouse would not be influenced. The lighting time in the soundproof chamber was set to 7:00-19:00 as in the breeding room.
The amounts of spontaneous locomotor activity of non-Tg mice and APPSL-Tg mice during the dark period of 19:00-7:00 were measured in advance. The mice were grouped in such manner as makes the mean and variance of the groups equal, using the body weight and the dark period spontaneous locomotor activity as indices.
Brexpiprazole was dissolved in distilled water containing 5% gum arabic, 5% gum arabic distilled water was used for the vehicle group, and they were orally administered to each mouse.
For 3 days, brexpiprazole and the vehicle were administered during the period of 17:30-18:30. After the administration, the measurement of the amount of locomotor activity was rapidly started or continued.
The statistical test was a two-sided test, and the significance level of the test was set to 5%. As a statistical software, SAS (R9.1, SAS Institute Japan Ltd.) was used.
Dunnett's test was performed based on the repeated measures ANOVA using a mixed model for Night 1-Night 3 at every phase I, II or III of the dark period. Furthermore, Dunnett's test was performed for every dark period and Night.

non-Tg mouse = assay: Measurement of mouse circadian rhythm locomotor activity in control mice; type: in vivo
Source text: as §1, §2
Brexpiprazole was administered to APPSL-Tg mouse immediately before the dark period (17:30-18:30) at a dose of 0.01 and 0.03 mg/kg, and the measurement of the spontaneous locomotor activity was started. […]

Tg2576 mouse = assay: Resident-Intruder test (aggression, biting); type: in vivo; conditions: 0.03 mg/kg oral 1 hr before test
Source text: Animal: Tg2576 mice (male) having a Swedish APP mutation (K670N, M671L) and non-Tg mice (male) free of the same genetic mutation as a control were purchased from Taconic, and bred and aged until 5- to 6-month-old of age. During the breeding, isolated housing was applied. Measurement method: For the experiment, Tg2576 or non-Tg mouse [Resident] and A/J mouse [Intruder] almost free of aggression were used. Resident formed a sufficient territory by isolated housing for 14 days. […] As the aggressive behavior, biting was noted, and the time necessary for the first biting and total number of biting for 10 min were measured. The measurement was performed within the dark period phase 1 (4 hr) when the amount of locomotor activity of the mouse is the highest. Tg2576 (48 mice) and non-Tg mice (10 mice) were subjected to a Resident-Intruder test in advance, and promotion of the to aggression of the Tg2576 mouse was confirmed. Five Tg2576 mice free of aggression were excluded and 43 mice were used for the test. The mice were grouped into 3 groups in such manner as makes the mean and variance of the groups equal, using the time necessary for the first attack and total number of biting for 10 min, which were obtained in the preliminary test, as indices (total 43 mice). […]

Wistar rat [4] = assay: Measurement of alcohol intake by limited access paradigm; type: in vivo
Description: Measurement method: An impulsive behavior of cravings for alcohol was evaluated as follows by reference to the method of Sinclair et al. (Alcohol 1992; 9:441-44 and Alcohol & Alcoholism 2001; 36:2-10). First, Wistar rat (male) was allowed to freely take 10% aqueous ethanol solution and tap water for several weeks under isolated housing. After stabilization of ethanol intake by each animal, a limited access paradigm allowing ethanol intake for only 1 hr per day was started, and the ethanol intake for 1 hr was measured every day. Ethanol intake was calculated from the results of the weight measurement of the water supply bottle filled with 10% aqueous ethanol solution immediately before the start of the limited access paradigm and immediately after completion thereof. An animal which was showing over 0.4 g/kg/hr in terms of 100% ethanol as an average ethanol intake in the limited access paradigm for 4 days immediately before drug evaluation was used. The limited access paradigm test was performed between 9:00 AM-12:00 PM. Brexpiprazole was suspended in distilled water containing 5% gum arabic. […] An average ethanol intake in the limited access paradigm of 4 days immediately before drug evaluation and an average ethanol intake in the limited access paradigm of 4 days after drug administration were analyzed by the 2-tailed paired t-test.

Wistar rat [5] = assay: Spontaneous locomotor activity under novel environments; type: in vivo; conditions: 0.1 mg/kg, data not indicated
c-fos-GFP mouse = assay: Measurement of nerve activation pattern (GFP signal) of c-fos-GFP mouse; type: in vivo; conditions: brain isolated 3 hr later
Description: Measurement method: c-fos is an indirect marker for neuronal activity, which is expressed on activation of nerve cell. Using a transgenic mouse introduced with a green fluorescent protein (GFP) gene at the downstream of the promoter of c-fos gene (c-fos-GFP mouse), the nerve activation pattern in the brain was measured. Brexpiprazole or vehicle was administered, and the brain was isolated 3 hr later. GFP signals from serial sections of the whole brain were stored in a computer using a two-photon microscope and, after three-dimensional reconstruction, the nerve activation patterns of brexpiprazole (OPC-34712) and vehicle groups were quantitatively analyzed using the brain map information. Brexpiprazole was suspended in distilled water containing 5% gum arabic, and orally administered to c-fos-GFP mouse. Five to seven mice were used. The dose of brexpiprazole was 0.3 and 1 mg/kg. The significance level of the test was set to 5%. In the comparison between groups in each brain region, Tukey's multiple comparison test was conducted.

[6] = 0.01 mg/kg oral, n = 6, mean ± standard error
[7] = 0.03 mg/kg oral, n = 5, mean ± standard error

C=C1CC[C@@]2(O)[C@H]3Cc4ccc(O)c5c4[C@@]2(CCN3CC2CC2)[C@H]1O5 [Nalmefene]
effect in the limited access paradigm evaluation system (Wistar rat [1]): shows effect in this evaluation system

COc1cc2c(cc1OC)C(=O)C(CC1CCN(Cc3ccccc3)CC1)C2 (stereo not drawn) [donepezil]
NPI (Neuropsychiatric Inventory) score vs placebo ([2]; p value 0.95): no statistically significant difference
CMAI (Cohen-Mansfield Agitation Inventory) score vs placebo ([2]; p value 0.98): no statistically significant difference

O=C(CCCN1CCC(O)(c2ccc(Cl)cc2)CC1)c1ccc(F)cc1 [haloperidol]
hostility (positive scale of PANSS) (schizophrenia patients): aggravated hostility
schizophrenia-like behaviors [3]: reduced the schizophrenia-like behaviors

O=c1ccc2ccc(OCCCCN3CCN(c4cccc5sccc45)CC3)cc2[nH]1 [brexpiprazole, 7-[4-(4-benzo[b]thiophen-4-yl-piperazin-1-yl)butoxy]-1H-quinolin-2-one]
spontaneous locomotor activity at Night 3, dark period phase III, vs vehicle (in words) (APPSL-Tg mouse; 0.01 mg/kg oral, P<0.01): significantly suppressed the spontaneous locomotor activity at Night 3
spontaneous locomotor activity in dark period phase III compared to the vehicle group (Night 1-Night 3) (APPSL-Tg mouse; 0.01 mg/kg oral, P<0.05): significantly suppress the spontaneous locomotor activity
spontaneous locomotor activity in dark period phase III compared to the vehicle group (Night 1-Night 3) (APPSL-Tg mouse; 0.03 mg/kg oral, P=0.050): significantly suppress the spontaneous locomotor activity
spontaneous locomotor activity at Night 3, dark period phase III, vs vehicle (in words) (APPSL-Tg mouse; 0.03 mg/kg oral, P=0.068): tended to suppress at Night 3
spontaneous locomotor activity, dark period III (3:00-7:00), Night 1 (APPSL-Tg mouse; [6]): 7256
spontaneous locomotor activity, dark period III (3:00-7:00), Night 2 (APPSL-Tg mouse; [6]): 6466
spontaneous locomotor activity, dark period III (3:00-7:00), Night 3 (APPSL-Tg mouse; 0.01 mg/kg oral, n = 6, mean ± standard error, P < 0.01 vs vehicle): 4928
spontaneous locomotor activity, dark period III (3:00-7:00), Night 1 (APPSL-Tg mouse; [7]): 6014
spontaneous locomotor activity, dark period III (3:00-7:00), Night 2 (APPSL-Tg mouse; [7]): 5443
spontaneous locomotor activity, dark period III (3:00-7:00), Night 3 (APPSL-Tg mouse; 0.03 mg/kg oral, n = 5, mean ± standard error, P = 0.068 vs vehicle): 6845
spontaneous locomotor activity in dark period (non-Tg mouse): did not decrease the spontaneous locomotor activity
time necessary for the first biting compared to the vehicle group (Tg2576 mouse; P<0.05): significantly elongated
number of biting for 10 min compared to the vehicle group (Tg2576 mouse; P=0.0709): tended to show a decreased number of biting
ethanol intake observed individually (Wistar rat [4]; 0.1 mg/kg oral for 4 days, five rats): all rats showed a decrease in the ethanol intake
average ethanol intake in the limited access paradigm (Wistar rat [4]; 0.1 mg/kg oral once per day for 4 days, 1 hr before, vs 4 days before drug): statistically significant suppression of ethanol intake
influence on spontaneous locomotor activity under novel environments (Wistar rat [5]): does not influence spontaneous locomotor activity
GFP signal in the medial prefrontal cortex (ACA, PL, IL) relative to vehicle (c-fos-GFP mouse; 0.3 mg/kg oral): significantly increased GFP signal
GFP signal in the medial prefrontal cortex (ACA, PL, IL) relative to vehicle (c-fos-GFP mouse; 1 mg/kg oral): significantly increased GFP signal

Cc1nc2n(c(=O)c1CCN1CCC(c3noc4cc(F)ccc34)CC1)CCCC2 [risperidone]
hostility (positive scale of PANSS) (schizophrenia patients): aggravated hostility
